# System: OVCAR3 cells
# Assay: OVCAR3 i.p. tumor model in athymic nude mice: tumor burden and ascites after 4 weeks of treatment
# Assay type: in vivo
# Conditions: for % Reduction Ascites / % Reduction Tumor Burden: compared to controls; for % Reduction Ascites: ascites volume at end of 4 weeks of treatment; for % Reduction Tumor Burden: treatment for 4 weeks starting 2 weeks after i.p. inoculation, VEGF-Trap s.c. twice weekly, paclitaxel i.p. 3 times weekly; for Mice with tumors in the hilus of the liver / Mice with tumors on the diaphragm: end of experiment; for Ascites formation (in words): end of 4 weeks of treatment
# Method: Experimental Design. Two experiments, each with 4 groups of female athymic nude mice (5-7 wks, 20 mice/experiment, total n=40) were inoculated i.p. with OVCAR3 cells. Two weeks after inoculation, 1 group was treated with VEGF-Trap s.c. twice weekly+paclitaxel i.p. 3 times weekly for 4 weeks. The second group was treated with VEGF-Trap alone. The third group was treated with paclitaxel alone. The remaining group was treated with vehicle. At the end of the experiments, the mice were euthanized, the volume of ascites was measured and all visible tumor was excised and weighed.
Molecule,% Reduction Ascites,% Reduction Ascites (listed as Paclitaxel),% Reduction Tumor Burden,% Reduction Tumor Burden (listed as paclitaxel),Mice with tumors in the hilus of the liver,Mice with tumors on the diaphragm,% Reduction Tumor Burden (listed as VEGF-Trap),Ascites formation (in words) (listed as VEGF trap),Ascites formation (in words) (listed as VEGF-Trap)
"CC(=O)O[C@H]1C(=O)[C@@]2(C)[C@H]([C@H](OC(=O)c3ccccc3)[C@]3(O)C[C@H](OC(=O)[C@H](O)[C@@H](NC(=O)c4ccccc4)c4ccccc4)C(C)=C1C3(C)C)[C@]1(OC(C)=O)CO[C@@H]1C[C@@H]2O [Taxol ™, paclitaxel, reference compound]",85.4%,85.5%,55.9%,54.8%,60%,80%,,,
"VEGF Trap: VEGF-receptor based trap antagonist VEGFR1R2-FcΔC1(a) (SEQ ID NOs: 1-2), capable of high affinity binding of VEGF",96.5%,,56.7%,,60%,Ninety,55.7%,no demonstrable ascites,Virtually no ascites developed
